From article PMC8699473, “An Easily Expandable Multi-Drug LC-MS Assay for the Simultaneous Quantification of 57 Oral Antitumor Drugs in Human Plasma” (Cancers, 2021)

Assay: Long-term stability in spiked pooled human plasma

Compound: CNCc1ccc(-c2[nH]c3cc(F)cc4c3c2CCNC4=O)cc1 [Rucaparib]
- Long-term stability, 1 month, -20°C Accuracy [%] (validation standard 2xLLOV): 95.4%
- Long-term stability, 1 month, -80°C Accuracy [%] (validation standard 2xLLOV): 89.7%
- Long-term stability, 2 month, -20°C Accuracy [%] (validation standard 2xLLOV): 100.7%
- Long-term stability, 2 month, -80°C Accuracy [%] (validation standard 2xLLOV): 99.7%
- Long-term stability, 3 month, -20°C Accuracy [%] (validation standard 2xLLOV): 95.9%
- Long-term stability, 3 month, -80°C Accuracy [%] (validation standard 2xLLOV): 94.7%
- Long-term stability, 6 weeks, 4°C, without daylight Accuracy [%] (validation standard 2xLLOV): 93.1%
- Long-term stability, 1 month, -20°C Accuracy [%] (validation standard LLOV): 104.7%
- Long-term stability, 1 month, -80°C Accuracy [%] (validation standard LLOV): 102.1%
- Long-term stability, 2 month, -20°C Accuracy [%] (validation standard LLOV): 115.1%
- Long-term stability, 2 month, -80°C Accuracy [%] (validation standard LLOV): 112.2%
- Long-term stability, 3 month, -20°C Accuracy [%] (validation standard LLOV): 109.6%
- Long-term stability, 3 month, -80°C Accuracy [%] (validation standard LLOV): 108.0%
- Long-term stability, 6 weeks, 4°C, without daylight Accuracy [%] (validation standard LLOV): 104.4%
- Long-term stability, 1 month, -20°C Accuracy [%] (validation standard MOV): 98.5%
- Long-term stability, 1 month, -80°C Accuracy [%] (validation standard MOV): 95.5%
- Long-term stability, 2 month, -20°C Accuracy [%] (validation standard MOV): 104.6%
- Long-term stability, 2 month, -80°C Accuracy [%] (validation standard MOV): 102.1%
- Long-term stability, 3 month, -20°C Accuracy [%] (validation standard MOV): 101.6%
- Long-term stability, 3 month, -80°C Accuracy [%] (validation standard MOV): 97.2%
- Long-term stability, 6 weeks, 4°C, without daylight Accuracy [%] (validation standard MOV): 103.5%
- Long-term stability, 1 month, -20°C Accuracy [%] (validation standard ULOV): 99.8%
- Long-term stability, 1 month, -80°C Accuracy [%] (validation standard ULOV): 94.8%
- Long-term stability, 2 month, -20°C Accuracy [%] (validation standard ULOV): 104.3%
- Long-term stability, 2 month, -80°C Accuracy [%] (validation standard ULOV): 102.7%
- Long-term stability, 3 month, -20°C Accuracy [%] (validation standard ULOV): 100.6%
- Long-term stability, 3 month, -80°C Accuracy [%] (validation standard ULOV): 98.3%
- Long-term stability, 6 weeks, 4°C, without daylight Accuracy [%] (validation standard ULOV): 100.2%

Compound: COC(=O)c1ccc2c(c1)NC(=O)/C2=C(\Nc1ccc(N(C)C(=O)CN2CCN(C)CC2)cc1)c1ccccc1 [Nintedanib]
- Long-term stability, 1 month, -20°C Accuracy [%] (validation standard 2xLLOV): 97.2%
- Long-term stability, 1 month, -80°C Accuracy [%] (validation standard 2xLLOV): 98.9%
- Long-term stability, 2 month, -20°C Accuracy [%] (validation standard 2xLLOV): 103.8%
- Long-term stability, 2 month, -80°C Accuracy [%] (validation standard 2xLLOV): 99.7%
- Long-term stability, 3 month, -20°C Accuracy [%] (validation standard 2xLLOV): 90.3%
- Long-term stability, 3 month, -80°C Accuracy [%] (validation standard 2xLLOV): 91.1%
- Long-term stability, 6 weeks, 4°C, without daylight Accuracy [%] (validation standard 2xLLOV): 94.4%
- Long-term stability, 1 month, -20°C Accuracy [%] (validation standard LLOV): 102.0%
- Long-term stability, 1 month, -80°C Accuracy [%] (validation standard LLOV): 102.1%
- Long-term stability, 2 month, -20°C Accuracy [%] (validation standard LLOV): 96.9%
- Long-term stability, 2 month, -80°C Accuracy [%] (validation standard LLOV): 94.3%
- Long-term stability, 3 month, -20°C Accuracy [%] (validation standard LLOV): 88.2%
- Long-term stability, 3 month, -80°C Accuracy [%] (validation standard LLOV): 88.3%
- Long-term stability, 6 weeks, 4°C, without daylight Accuracy [%] (validation standard LLOV): 86.6%
- Long-term stability, 1 month, -20°C Accuracy [%] (validation standard MOV): 95.5%
- Long-term stability, 1 month, -80°C Accuracy [%] (validation standard MOV): 91.4%
- Long-term stability, 2 month, -20°C Accuracy [%] (validation standard MOV): 98.9%
- Long-term stability, 2 month, -80°C Accuracy [%] (validation standard MOV): 99.7%
- Long-term stability, 3 month, -20°C Accuracy [%] (validation standard MOV): 97.2%
- Long-term stability, 3 month, -80°C Accuracy [%] (validation standard MOV): 94.7%
- Long-term stability, 6 weeks, 4°C, without daylight Accuracy [%] (validation standard MOV): 94.4%
- Long-term stability, 1 month, -20°C Accuracy [%] (validation standard ULOV): 94.5%
- Long-term stability, 1 month, -80°C Accuracy [%] (validation standard ULOV): 87.4%
- Long-term stability, 2 month, -20°C Accuracy [%] (validation standard ULOV): 97.0%
- Long-term stability, 2 month, -80°C Accuracy [%] (validation standard ULOV): 94.8%
- Long-term stability, 3 month, -20°C Accuracy [%] (validation standard ULOV): 92.9%
- Long-term stability, 3 month, -80°C Accuracy [%] (validation standard ULOV): 91.8%
- Long-term stability, 6 weeks, 4°C, without daylight Accuracy [%] (validation standard ULOV): 85.9%

Compound: CCCS(=O)(=O)Nc1ccc(F)c(C(=O)c2c[nH]c3ncc(-c4ccc(Cl)cc4)cc23)c1F [Vemurafenib]
- Long-term stability, 1 month, -20°C Accuracy [%] (validation standard 2xLLOV): 102.1%
- Long-term stability, 1 month, -80°C Accuracy [%] (validation standard 2xLLOV): 105.7%
- Long-term stability, 2 month, -20°C Accuracy [%] (validation standard 2xLLOV): 110.6%
- Long-term stability, 2 month, -80°C Accuracy [%] (validation standard 2xLLOV): 108.1%
- Long-term stability, 3 month, -20°C Accuracy [%] (validation standard 2xLLOV): 97.3%
- Long-term stability, 3 month, -80°C Accuracy [%] (validation standard 2xLLOV): 105.9%
- Long-term stability, 6 weeks, 4°C, without daylight Accuracy [%] (validation standard 2xLLOV): 86.3%
- Long-term stability, 1 month, -20°C Accuracy [%] (validation standard LLOV): 105.8%
- Long-term stability, 1 month, -80°C Accuracy [%] (validation standard LLOV): 101.6%
- Long-term stability, 2 month, -20°C Accuracy [%] (validation standard LLOV): 104.5%
- Long-term stability, 2 month, -80°C Accuracy [%] (validation standard LLOV): 98.7%
- Long-term stability, 3 month, -20°C Accuracy [%] (validation standard LLOV): 106.2%
- Long-term stability, 3 month, -80°C Accuracy [%] (validation standard LLOV): 114.9%
- Long-term stability, 6 weeks, 4°C, without daylight Accuracy [%] (validation standard LLOV): 85.9%
- Long-term stability, 1 month, -20°C Accuracy [%] (validation standard MOV): 104.9%
- Long-term stability, 1 month, -80°C Accuracy [%] (validation standard MOV): 106.7%
- Long-term stability, 2 month, -20°C Accuracy [%] (validation standard MOV): 116.1%
- Long-term stability, 2 month, -80°C Accuracy [%] (validation standard MOV): 119.1%
- Long-term stability, 3 month, -20°C Accuracy [%] (validation standard MOV): 92.9%
- Long-term stability, 3 month, -80°C Accuracy [%] (validation standard MOV): 96.8%
- Long-term stability, 6 weeks, 4°C, without daylight Accuracy [%] (validation standard MOV): 97.8%
- Long-term stability, 1 month, -20°C Accuracy [%] (validation standard ULOV): 104.7%
- Long-term stability, 1 month, -80°C Accuracy [%] (validation standard ULOV): 101.7%
- Long-term stability, 2 month, -20°C Accuracy [%] (validation standard ULOV): 119.0%
- Long-term stability, 2 month, -80°C Accuracy [%] (validation standard ULOV): 112.7%
- Long-term stability, 3 month, -20°C Accuracy [%] (validation standard ULOV): 89.5%
- Long-term stability, 3 month, -80°C Accuracy [%] (validation standard ULOV): 100.8%
- Long-term stability, 6 weeks, 4°C, without daylight Accuracy [%] (validation standard ULOV): 94.4%

Compound: CS(=O)(=O)c1ccc(C(=O)Nc2ccc(Cl)c(-c3ccccn3)c2)c(Cl)c1 [Vismodegib]
- Long-term stability, 1 month, -20°C Accuracy [%] (validation standard 2xLLOV): 105.4%
- Long-term stability, 1 month, -80°C Accuracy [%] (validation standard 2xLLOV): 99.5%
- Long-term stability, 2 month, -20°C Accuracy [%] (validation standard 2xLLOV): 106.5%
- Long-term stability, 2 month, -80°C Accuracy [%] (validation standard 2xLLOV): 104.3%
- Long-term stability, 3 month, -20°C Accuracy [%] (validation standard 2xLLOV): 100.1%
- Long-term stability, 3 month, -80°C Accuracy [%] (validation standard 2xLLOV): 99.6%
- Long-term stability, 6 weeks, 4°C, without daylight Accuracy [%] (validation standard 2xLLOV): 107.5%
- Long-term stability, 1 month, -20°C Accuracy [%] (validation standard LLOV): 92.5%
- Long-term stability, 1 month, -80°C Accuracy [%] (validation standard LLOV): 88.6%
- Long-term stability, 2 month, -20°C Accuracy [%] (validation standard LLOV): 94.1%
- Long-term stability, 2 month, -80°C Accuracy [%] (validation standard LLOV): 96.9%
- Long-term stability, 3 month, -20°C Accuracy [%] (validation standard LLOV): 84.3%
- Long-term stability, 3 month, -80°C Accuracy [%] (validation standard LLOV): 84.4%
- Long-term stability, 6 weeks, 4°C, without daylight Accuracy [%] (validation standard LLOV): 96.6%
- Long-term stability, 1 month, -20°C Accuracy [%] (validation standard MOV): 97.8%
- Long-term stability, 1 month, -80°C Accuracy [%] (validation standard MOV): 97.9%
- Long-term stability, 2 month, -20°C Accuracy [%] (validation standard MOV): 103.0%
- Long-term stability, 2 month, -80°C Accuracy [%] (validation standard MOV): 103.7%
- Long-term stability, 3 month, -20°C Accuracy [%] (validation standard MOV): 101.3%
- Long-term stability, 3 month, -80°C Accuracy [%] (validation standard MOV): 100.9%
- Long-term stability, 6 weeks, 4°C, without daylight Accuracy [%] (validation standard MOV): 109.8%
- Long-term stability, 1 month, -20°C Accuracy [%] (validation standard ULOV): 90.5%
- Long-term stability, 1 month, -80°C Accuracy [%] (validation standard ULOV): 87.8%
- Long-term stability, 2 month, -20°C Accuracy [%] (validation standard ULOV): 94.5%
- Long-term stability, 2 month, -80°C Accuracy [%] (validation standard ULOV): 95.1%
- Long-term stability, 3 month, -20°C Accuracy [%] (validation standard ULOV): 94.9%
- Long-term stability, 3 month, -80°C Accuracy [%] (validation standard ULOV): 93.4%
- Long-term stability, 6 weeks, 4°C, without daylight Accuracy [%] (validation standard ULOV): 96.5%
